For orientation: IC50 means the concentration that inhibits the measured activity by half. A low value points to greater potency.

We go through 14 molecules from US5866588A, “Imidazopyridine derivatives” (British Biotech Pharmaceuticals Ltd., priority 1995, dated 1999).

Assay [1] has as its target T1, histamine-1 receptors on Hela-S3 cells (Homo sapiens, UniProt P35367).
T1 construct: histamine-1 receptors on Hela-S3 cells (American Type Culture Collection); host or cells: HeLa-S3 cells (intact cell suspension)
The assay can be described thus: Inhibition of [^3 H]-Pyrilamine Binding to Histamine-1 Receptors on Hela-S3 Cells. Particulars: 0.5 h; 1 μM test compound; [^3 H]-pyrilamine remaining specifically bound; 37° C., 30 minutes; read-out: % Specific Binding at 1 μM. The protocol:
Inhibition of [^3 H]-Pyrilamine Binding to Histamine-1 Receptors on Hela-S3 Cells
The inhibition of [^3 H]-pyrilamine binding to histamine-1 receptors on Hela-S3 cells (American Type Culture Collection) was determined by isotopic labelling and filtration techniques. A suspension of the cells in buffer (25 ml, 0.5% Bovine Serum Albumin, 0.1% sodium azide, phosphate buffered saline (PBS)) was centrifuged at 1000 rpm for 5 minutes in a JOUAN CR 422 centrifuge, collected, resuspended in buffer (25 ml) and spun again. The cells were counted using a haemocytometer and resuspended in buffer to provide a final concentration of 4.5×10^6 cells ml^-1. A portion of the Hela-S3 cell suspension (1 ml) was added to each assay tube containing 25 μl of vehicle (50% DMSO/buffer) or 25 μl of test compound solution (dissolved in DMSO and diluted with sufficient PBS to give a final test concentration of 1 μM) and 25 μl of [^3 H]-pyrilamine (supplied by Amersham International and diluted with PBS to 3 nM). The tubes were mixed, incubated at 37° C. for 30 minutes and then spun at 4° C. at 2000 rpm for 2 minutes. The supernatant was removed and the cells resuspended in buffer (repeated ×2). The cells were suspended in 300 μl of a 2:1 solution of 1M sodium hydroxide and 1% sodium dodecyl sulphate. The tubes were left ovemight before the contents were tranferred to a scintillation vial, treated with 10 ml, OPTIPHASE MP scintillation fluid (OPTIPHASE MP is a trade mark) and the radioactivity counted in a scintillation counter. Non-displacable binding (NDB) was determined using Astemizole (5×10^-5 M) in place of test compounds. Defining the counts for total binding from the vehicle control sample as "TB" and the counts for total binding with antogonist as "TBA" the percentage specific binding (% SB) can be determined from the following equation.

Assay [2] relates to PAF-Induced Platelet Aggregation. The assay can be described thus: Inhibition of PAF-Induced Platelet Aggregation. Format: cell-based, rabbit (New Zealand White). Conditions: Oryctolagus cuniculus; rabbit platelet-rich plasma, PAF 100 ngml^-1. The method, then: Inhibition of PAF-Induced Platelet Aggregation
Male New Zealand White rabbits (3.0-3.5 kg) were anaesthetised by intravenous administration of sodium pentobarbitone, 18 mg.ml^-1, via a marginal ear vein. The trachea was exposed and connected to a respiratory pump (Harvard UK) to provide artificial ventilation. A carotid artery was exposed and cannulated and the animal was exsanguinated. Whole blood was collected in a syringe containing tri-sodium citrate (3.8% w/v) to a ratio of 1 part citrate:9 parts blood.
Collected blood was centrifuged at 180×g for 15 minutes at room temperature (21° C.) to prepare platelet-rich plasma (PRP). The remaining blood was then centrifuged at 1800×g for 10 minutes at room temperature to obtain platelet poor plasma (PPP).
Platelet count of the PRP was measured using a Technicon H1 blood cell differential analyser (Bayer Diagnostics UK) and adjusted with PPP to obtain a final platelet count of 500,000 platelets per μl of plasma, this being the normal physiological platelet count for rabbits. Corrected PRP was left to equilibrate at room temperature for 30 minutes before use.
Aggregation studies were carried out using a 4-channel aggregometer (PAP-4C, BioData USA) as follows: 400 μl aliquots of PRP were placed in siliconised cuvettes and incubated to 37° C. for 1 to 2 minutes in the heating block of the aggregometer. Baseline (100% aggregation) was set up using PPP (500 μl in a siliconised cuvette). The PRP was placed into a measuring well of the aggregometer, and a stirrer bar was added. The sample was stirred at 1000 rpm. The machine was activated to set the 0% aggregation level. Test compound or vehicle (50 μl) was added to the PRP, where any effects on the baseline was noted. PAF (100 ngml^-1 as 50 μl aliqout) was added to the PRP 3 minutes after test compound or vehicle. Aggregation was measured for a further 4 minutes after PAF addition and the maximum aggregation over the 4 minutes was recorded.
The investigation of different concentrations of test compound was performed in triplicate. Data were expressed as […] of the sample and test compound data were compared to vehicle data to obtain % inhibition of the PAF-induced aggregation from which IC50 values could be determined.
PAF was made up in sterile saline (NaCl 0.9% w/v) containing BSA (0.25% w/v) from an initial stock solution (10 mgml^-1 in EtOH). Test compounds were made up as 1×10^-3 M stock solutions in sterile saline containing molar equivalents of 1N HCl (v/v) or in DMSO.
In the results which follow, a comparison compound A was included. Compound A was prepared as described in EP-A-260613 (G. D. Searle), but is not part of the present invention. As appears from the results of the comparison, compounds of this invention, all of which incorporate a fragment capable of H1 antagonist activity, are observed to show improved PAF antagonist activity over compound A.

T1 sequence (P35367 whole entry): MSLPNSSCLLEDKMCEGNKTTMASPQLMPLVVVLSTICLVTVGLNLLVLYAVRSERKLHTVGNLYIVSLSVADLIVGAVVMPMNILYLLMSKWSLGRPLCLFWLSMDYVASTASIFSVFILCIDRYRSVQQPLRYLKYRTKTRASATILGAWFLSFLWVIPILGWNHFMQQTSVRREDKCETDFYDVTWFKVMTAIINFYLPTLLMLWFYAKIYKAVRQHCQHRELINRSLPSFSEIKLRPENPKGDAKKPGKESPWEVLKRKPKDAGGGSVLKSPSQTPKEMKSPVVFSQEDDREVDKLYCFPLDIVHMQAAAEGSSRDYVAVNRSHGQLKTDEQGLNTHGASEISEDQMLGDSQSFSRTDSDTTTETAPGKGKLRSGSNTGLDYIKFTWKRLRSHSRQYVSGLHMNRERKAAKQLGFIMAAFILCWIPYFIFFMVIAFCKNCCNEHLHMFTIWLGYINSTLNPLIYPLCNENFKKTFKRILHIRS

Take `CCC(C)N(C/C=C/c1cccc(/C(=C/CN2CCCC2)c2ccc(C)cc2)n1)C(=O)c1ccc(Cn2c(C)nc3cnccc32)cc1` (racemic) [Example 9, N-(R,S) sec-Butyl-4-(1H-2-methylimidazo[4,5-c]pyridin-1-ylmethyl)-N-(E)-{3-[6-(3-pyrrolidin-1-yl-1-{4-tolyl}-prop-1E-enyl)-pyridin-2-yl]-prop-2-enyl}-benzamide]: in assay [1], the activity at 1 µM is 63%. Besides, half-maximal inhibition in assay [2] (IC50) was put at 43 nM.

Regarding `CN(C(=O)c1ccc(Cn2cnc3cnccc32)cc1)C1CCCCC1` [Compound A, reference compound], the IC50 in assay [2] is 74000 nM.

In the case of `Cc1ccc(/C(=C\CN2CCCC2)c2cccc(/C=C/COC(=O)c3ccc(Cn4c(C)nc5cnccc54)cc3)n2)cc1` [Example 1, 4-(1H-2-Methylimidazo[4,5-c]pyridin-1-ylmethyl)benzoic acid 3-[6-(3-pyrrolidin-1-yl-1-{4-tolyl}-prop-1E-enyl)-pyridin-2-yl]prop-2E-enyl ester], in assay [1], the activity at 1 µM amounted to 16%. This molecule also had an IC50 in assay [2] of 2100 nM.

`Cc1ccc(/C(=C\CN2CCCC2)c2cccc(CCCOC(=O)c3ccc(Cn4c(C)nc5cnccc54)cc3)n2)cc1` [Example 2, 4-(1H-2-Methylimidazo[4,5-c]pyridin-1-ylmethyl)benzoic acid 3-[6-(3-pyrrolidin-1-yl-1-{4-tolyl}-prop-1E-enyl)-pyridin-2-yl]propyl ester]: the activity at 1 µM in assay [1] stood at 15%. The molecule further showed an IC50 in assay [2] of 542 nM.

On to `Cc1ccc(/C(=C\CN2CCCC2)c2cccc(/C=C/CNC(=O)c3ccc(Cn4c(C)nc5cnccc54)cc3)n2)cc1` [Example 5, 4-(1H-2-Methylimidazo[4,5-c]pyridin-1-ylmethyl)-N-{3-[6-(3-pyrrolidino-1-{4-tolyl}-prop-1E-enyl)-pyridin-2-yl]-prop-2E-enyl}-benzamide], for which the activity at 1 µM in assay [1] came out at 16%. For the same molecule, the concentration for half-maximal inhibition (IC50) in assay [2] was 2200 nM.

For `Cc1ccc(/C(=C\CN2CCCC2)c2cccc(/C=C/CN(CCC(C)C)C(=O)c3ccc(Cn4c(C)nc5cnccc54)cc3)n2)cc1` [Example 6, N-(3-Methyl-but-1-yl)-4-(1H-2-methylimidazo[4,5-c]pyridin-1-ylmethyl)-N-{3-[6-(3-pyrrolidin-1-yl-1-{4-tolyl}-prop-1E-enyl)-pyridin-2-yl]-prop-2E-enyl}-benzamide], the activity at 1 µM in assay [1] worked out at 29%. The IC50 in assay [2] was determined as 333 nM.

As for `Cc1ccc(/C(=C\CN2CCCC2)c2cccc(/C=C/CN(CC(C)C)C(=O)c3ccc(Cn4c(C)nc5cnccc54)cc3)n2)cc1` [Example 7, N-iso-Butyl-4-(1H-2-methylimidazo[4,5-c]pyridin-1-ylmethyl)-N-{3-[6-(3-pyrrolidin-1-yl-1-{4-tolyl}-prop-1E-enyl)-pyridin-2-yl]-prop-2E-enyl}-benzamide], in assay [1], the activity at 1 µM was determined as 40%. In assay [2], this molecule yielded an IC50 of 133 nM.

As to `Cc1ccc(/C(=C\CN2CCCC2)c2cccc(/C=C/CN(C(=O)c3ccc(Cn4c(C)nc5cnccc54)cc3)C3CCCC3)n2)cc1` [Example 8, N-Cyclopentyl-4-(1H-2-methylimidazo[4,5-c]pyridin-1-ylmethyl)-N-{3-[6-(3-pyrrolidin-1-yl-1-{4-tolyl}-prop-1E-enyl)-pyridin-2-yl]-prop-2E-enyl}-benzamide], in assay [1], the activity at 1 µM was found to be 34%. Further, the IC50 in assay [2] was found to be 92 nM.

As to `Cc1ccc(/C(=C\CN2CCCC2)c2cccc(/C=C/CN(C(=O)c3ccc(Cn4c(C)nc5cnccc54)cc3)C(C)(C)C)n2)cc1` [Example 10, N-tert-Butyl-4-(1H-2-methylimidazo[4,5-c]pyridin-1-ylmethyl)-N-{3-[6-(3-pyrrolidin-1-yl-1-{4-tolyl}-prop-1E-enyl)-pyridin-2-yl]-prop-2E-enyl}-benzamide], the activity at 1 µM in assay [1] was 62%. Also, in assay [2], the IC50 is 2010 nM.

Consider `Cc1ccc(/C(=C\CN2CCCC2)c2cccc(/C=C/CN(C(=O)c3ccc(Cn4c(C)nc5cnccc54)cc3)C3CC(C)CC(C)C3)n2)cc1` (centres unmarked) [Example 11, N-3,5-Dimethylcyclohexyl-4-(1H-2-methylimidazo[4,5-c]pyridin-1-ylmethyl)-N-{3-[6-(3-pyrrolidin-1-yl-1-{4-tolyl}-prop-1E-enyl)-pyridin-2-yl]-prop-2E-enyl)-benzamide], for which the activity at 1 µM in assay [1] turned out to be 60%. Half-maximal inhibition in assay [2] (IC50) required 176 nM.

With `Cc1ccc(/C(=C\CN2CCCC2)c2cccc(/C=C/CN(C(=O)c3ccc(Cn4c(C)nc5cnccc54)cc3)C(C)C)n2)cc1` [Example 12, N-iso-Propyl-4-(1H-2-methylimidazo[4,5-c]pyridin-1-ylmethyl)-N-{3-[6-(3-pyrrolidin-1-yl-1-{4-tolyl}-prop-1E-enyl)-pyridin-2-yl]-prop-2E-enyl)-benzamide], in assay [1], the activity at 1 µM came to 64%. The IC50 in assay [2] is 58 nM.

Turning to `Cc1ccc(/C(=C\CN2CCCC2)c2cccc(CCCN(C(=O)c3ccc(Cn4c(C)nc5cnccc54)cc3)C3CCCCC3)n2)cc1` [Example 17, N-Cyclohexyl-4-(1H-2-methylimidazo[4,5-c]pyridin-1-ylmethyl)-N-{3-[6-(3-pyrrolidin-1-yl-1-{4-tolyl}-prop-1E-enyl)-pyridin-2-yl]-propyl}-benzamide], the activity at 1 µM in assay [1] is 58%. This molecule also displayed a 50% inhibitory concentration (IC50) in assay [2] of 315 nM.

In the case of `CCCCN(C/C=C/c1cccc(/C(=C/CN2CCCC2)c2ccc(C)cc2)n1)C(=O)c1ccc(Cn2c(C)nc3cnccc32)cc1` [Example 22, N-Butyl-4-(1H-2-methylimidazo[4,5-c]pyridin-1-ylmethyl)-N-{3-[6-(3-pyrrolidin-1-yl-1-{4-tolyl}-prop-1E-enyl)-pyridin-2-yl]-prop-2E-enyl}-benzamide], in assay [1], the activity at 1 µM came to 31%. This molecule gave an IC50 in assay [2] of 62 nM.

As to `Cc1ccc(/C(=C\CN2CCCC2)c2cccc(/C=C/CN(C)C(=O)c3ccc(-n4c(C)nc5cnccc54)cc3)n2)cc1` [Example 26, N-Methyl-4-(1H-2-methylimidazo[4,5-c]pyridin-1-yl)-N-{3-[6-(3-pyrrolidin-1-yl-1-{4-tolyl}-prop-1E-enyl)-pyridin-2-yl]-prop-2E-enyl}-benzamide], the activity at 1 µM in assay [1] was 26%.
